± gives the expanded uncertainty stated by the source.
Settings: for mass density: Vibrating tube method; for vapor or sublimation pressure: Closed cell (Static) method

FC(F)=C(F)C(F)(F)F [hexafluoropropene]
Settings | mass density [kg/m3]
355.27 K, 2909.4 kPa, Fluid (supercritical or subcritical phases) | 348.62 ± 7.7
355.27 K, 2910.6 kPa, Fluid (supercritical or subcritical phases) | 349.91 ± 7.3
355.27 K, 2911.7 kPa, Fluid (supercritical or subcritical phases) | 352.16 ± 2.5
355.27 K, 2913.4 kPa, Fluid (supercritical or subcritical phases) | 357.67 ± 3
355.27 K, 2914.7 kPa, Fluid (supercritical or subcritical phases) | 388.98 ± 7.1
355.27 K, 2915.5 kPa, Fluid (supercritical or subcritical phases) | 400.54 ± 8.7
357.01 K, 3028.5 kPa, Liquid | 789.77 ± 2.5
357.01 K, 3030.8 kPa, Liquid | 791.93 ± 2.4
357.01 K, 3032.9 kPa, Liquid | 793.76 ± 2.4
357.01 K, 3035 kPa, Liquid | 795.08 ± 2.4
357.01 K, 3037.1 kPa, Liquid | 796.63 ± 2.4
357.01 K, 3039.5 kPa, Liquid | 798.44 ± 2.4
357.01 K, 3041.7 kPa, Liquid | 799.96 ± 2.4
357.01 K, 3044 kPa, Liquid | 801.6 ± 2.4
357.01 K, 3046 kPa, Liquid | 802.75 ± 2.4
357.01 K, 3052 kPa, Liquid | 806.74 ± 2.5
357.01 K, 3055.7 kPa, Liquid | 808.82 ± 2.6
357.01 K, 3059.3 kPa, Liquid | 810.72 ± 2.7
357.01 K, 3062.9 kPa, Liquid | 812.63 ± 2.8
357.01 K, 3066.3 kPa, Liquid | 814.7 ± 2.8
357.01 K, 3069.9 kPa, Liquid | 816.53 ± 2.4
357.01 K, 3073.4 kPa, Liquid | 818.11 ± 2.4
357.01 K, 3077.1 kPa, Liquid | 819.71 ± 2.4
357.01 K, 3081.1 kPa, Liquid | 821.77 ± 2.3
357.01 K, 3084.7 kPa, Liquid | 823.28 ± 2.3
357.01 K, 3088.4 kPa, Liquid | 824.79 ± 2.2
357.01 K, 3095.6 kPa, Liquid | 828.01 ± 2.3
357.01 K, 3097.6 kPa, Liquid | 828.88 ± 2.3
357.01 K, 3104.3 kPa, Liquid | 831.16 ± 2
357.01 K, 3114.1 kPa, Liquid | 834.77 ± 2
357.01 K, 3123.9 kPa, Liquid | 838.1 ± 1.9
357.01 K, 3133.7 kPa, Liquid | 841.6 ± 1.8
357.01 K, 3153.7 kPa, Liquid | 847.97 ± 1.7
357.01 K, 3163.8 kPa, Liquid | 850.53 ± 1.7
357.01 K, 3173.8 kPa, Liquid | 853.47 ± 1.6
357.01 K, 3184.9 kPa, Liquid | 856.37 ± 1.6
357.01 K, 3195 kPa, Liquid | 858.9 ± 1.6
357.01 K, 3205.2 kPa, Liquid | 861.29 ± 1.6
357.01 K, 3230.2 kPa, Liquid | 866.99 ± 1.4
357.01 K, 3243.1 kPa, Liquid | 869.66 ± 1.4
357.01 K, 3256.4 kPa, Liquid | 872.23 ± 1.4
357.01 K, 3269.5 kPa, Liquid | 874.91 ± 1.4
357.01 K, 3282.6 kPa, Liquid | 877.54 ± 1.4
357.01 K, 3295.4 kPa, Liquid | 879.85 ± 1.4
357.01 K, 3307.9 kPa, Liquid | 882.22 ± 1.3
357.01 K, 3320.3 kPa, Liquid | 884.31 ± 1.3
357.01 K, 3334 kPa, Liquid | 886.47 ± 1.3
357.01 K, 3347.2 kPa, Liquid | 888.84 ± 1.3
357.01 K, 3373.4 kPa, Liquid | 892.84 ± 1.3
357.01 K, 3387.8 kPa, Liquid | 895.05 ± 1.3
357.01 K, 3400.4 kPa, Liquid | 896.81 ± 1.2
357.01 K, 3418.8 kPa, Liquid | 899.41 ± 1.2
357.01 K, 3438.2 kPa, Liquid | 902.07 ± 1.2
357.01 K, 3457.5 kPa, Liquid | 904.69 ± 1.2
357.01 K, 3477.9 kPa, Liquid | 907.3 ± 1.2
357.01 K, 3514.9 kPa, Liquid | 911.85 ± 1.2
357.01 K, 3540.5 kPa, Liquid | 914.94 ± 1.2
357.01 K, 3590.4 kPa, Liquid | 920.73 ± 1.2
357.01 K, 3614.6 kPa, Liquid | 923.49 ± 1.2
357.01 K, 3639.2 kPa, Liquid | 926.14 ± 1.2
357.01 K, 3664.9 kPa, Liquid | 928.77 ± 1.1
357.01 K, 3689.5 kPa, Liquid | 931.28 ± 1.1
357.01 K, 3714.8 kPa, Liquid | 933.72 ± 1.1
357.01 K, 3740.1 kPa, Liquid | 936.03 ± 1.1
357.01 K, 3764.8 kPa, Liquid | 938.27 ± 1.1

Liquid
Settings | vapor or sublimation pressure [kPa]
356.24 K | 2965.3 ± 5.2
356.76 K | 2998.5 ± 5.3

Reference: the NIST ThermoML archive (doi:10.1021/je900596d)
